Test results published in publication PMC5906549, “Cathelicidin-Derived Antimicrobial Peptides Inhibit Zika Virus Through Direct Inactivation and Interferon Pathway” (Frontiers in Immunology, 2018).
Peptide text beside a SMILES is read from it.

Tested on: ZIKV strain MR766
Assay: Extracellular ZIKV RNA in supernatants of infected human fetal astrocytes (real-time RT-PCR)
Assay type: cell-based, Zika virus
Conditions: ZIKV MOI 0.5, 48 h, cell-free supernatants
Method: Total mRNA was isolated with TRIzol Reagent (Thermo Fisher Scientific) and RNeasy Mini Kit (QIAGEN Inc., Valencia, CA, USA) following the manufacturer’s recommendations. Two real-time RT-PCR methods were used for the current studies. First, SYBR Green-based RT-PCR assay was used to determine intracellular ZIKV RNA in Vero cells. For this assay, reverse transcription was performed using Verso cDNA synthesis Kit (Thermo Fisher Scientific) and 1 µg of total RNA in a 15-µL final volume. The RT-PCR analyses were performed using 7.5-µL SYBR Green PCR Master Mix (Thermo Fisher Scientific) with 0.5-µL cDNA, 1.5-µL H2O, 5.5-µL oligonucleotide primer pairs at 10 µM. […] GG-3. PCR program: 1, 50°C for 2 min; 2, 95°C for 2 min; 3, 95°C for 15 s; 4, specific annealing temperature for 15 s; 5, 72°C for 1 min. Steps 2–4 were repeated 40 times. All samples were amplified in triplicate for analysis. Relative ZIKV RNA levels were determined and standardized with a GAPDH internal control using comparative ΔΔCT method ([35]). Second, TaqMan-based RT-PCR assay was used to determine intracellular ZIKV RNA and other gene expressions in Figures 3–6 and extracellular ZIKV RNA in Figure 3. The TaqMan assay was performed in a StepOne^TM Real-Time PCR system (Thermo Fisher Scientific). Primers used for TaqMan real-time RT-PCR were all from the Thermo Fisher Scientific, which included ZIKV (forward sequence: 5-[…]-3, reverse sequence: 5- […]-3, and probe sequence: 5′-[…]-3), IFN-α2 (Hs00265051_s1), IFN-β1 (Hs01077958_s1), eukaryotic 18-s rRNA (Hs99999901_s1), β-actin (Hs99999903_m1), and GAPDH (Catalog number: 4310884E). Relative ZIKV mRNA levels were determined and standardized with a GAPDH or 18-s rRNA endogenous control using comparative ΔΔCT method ([35]). […] Quantitative genomic RNA from ZIKV (NR-1838DQ, ATCC) was used as a standard to calculate viral copies.
(A) Human fetal astrocytes were treated with doses of the selected peptides ranging from 1 to 50 µM. […] Cell viability was determined by a colorimetric MTS assay. […] Data were analyzed by nonlinear regression and assessed the EC50 for each of the antimicrobial peptides. […] At the experimental endpoint, intracellular ZIKV RNA (B) was determined through real-time RT-PCR in total cellular RNA. […] Extracellular ZIKV RNA [(C), in log scale] was determined through real-time RT-PCR using total RNA isolated from cell-free supernatants. ZIKV virion levels (in log scale) were determined by adding cell-free culture supernatants to Vero cells and overlaid with Agar gel in viral PFA (D). Viral plaques were manually counted and calculated as PFU/mL (E). * p < 0.05, ** p < 0.01, and *** p < 0.001, as compared with the ZIKV group without peptide treatment (ANOVA, N = 3).

| Structure (SMILES) | Extracellular ZIKV RNA in culture supernatants, reduced to % of untreated (peptide 2 µM) [%] | Extracellular ZIKV RNA in culture supernatants, reduced to % of untreated (peptide 10 µM) [%] |
| --- | --- | --- |
| CC[C@H](C)[C@H](NC(=O)[C@H](CCCCN)NC(=O)[C@H](CCCCN)NC(=O)[C@H](Cc1ccccc1)NC(=O)[C@H](CC(C)C)NC(=O)[C@H](CCCCN)NC(=O)[C@H](CCCCN)NC(=O)[C@H](Cc1ccccc1)NC(=O)[C@H](CCCCN)NC(=O)[C@H](CCCCN)NC(=O)[C@H](CCCNC(=N)N)NC(=O)[C@H](Cc1ccccc1)NC(=O)[C@H](CCCNC(=N)N)NC(=O)[C@H](CCCCN)NC(=O)[C@H](Cc1ccccc1)NC(=O)[C@H](CCCNC(=N)N)NC(=O)CN)C(=O)N[C@@H](CO)C(=O)O [BMAP-18] (H-GRFKRFRKKFKKLFKKIS-OH; N-terminus and C-terminus assumed) | 5.6 | 1.3 |
| CC[C@H](C)[C@H](NC(=O)[C@H](CCCNC(=N)N)NC(=O)[C@H](CCC(N)=O)NC(=O)[C@@H](NC(=O)[C@@H](NC(=O)[C@H](CCCNC(=N)N)NC(=O)[C@H](CCCCN)NC(=O)[C@H](Cc1ccccc1)NC(=O)CN)[C@@H](C)CC)C(C)C)C(=O)N[C@@H](CCCCN)C(=O)N[C@@H](CC(=O)O)C(=O)N[C@@H](Cc1ccccc1)C(=O)N[C@@H](CC(C)C)C(=O)N[C@@H](CCCNC(=N)N)C(=O)N[C@@H](CC(N)=O)C(=O)N[C@@H](CC(C)C)C(=O)N[C@H](C(N)=O)C(C)C [GF-17] (H-GFKRIVQRIKDFLRNLV-NH2; N-terminus and C-terminus assumed) | 16.7 | 0.1 |
